Reference: patent US5407954A, “Arylalkoxyphenoxy-imidazoline compounds” (Merrell Dow Pharmaceuticals Inc., priority 1994, dated 1995)

Legend:
[1] = target: T1, cloned rat 5-HT2 receptor (Rattus norvegicus, UniProt P14842); assay: Affinity for 5-HT2 receptors on transfected fibroblast cell membranes ([125I]LSD competition binding, NIH 3T3 GF-6 cells); conditions: NIH 3T3 GF-6 cell membranes, 37° C., 60 minutes, pH 7.6
T1 construct: expressed in transfected cells; host or cells: NIH 3T3 fibroblasts, line 'GF-6'
T1 sequence (P14842 whole entry): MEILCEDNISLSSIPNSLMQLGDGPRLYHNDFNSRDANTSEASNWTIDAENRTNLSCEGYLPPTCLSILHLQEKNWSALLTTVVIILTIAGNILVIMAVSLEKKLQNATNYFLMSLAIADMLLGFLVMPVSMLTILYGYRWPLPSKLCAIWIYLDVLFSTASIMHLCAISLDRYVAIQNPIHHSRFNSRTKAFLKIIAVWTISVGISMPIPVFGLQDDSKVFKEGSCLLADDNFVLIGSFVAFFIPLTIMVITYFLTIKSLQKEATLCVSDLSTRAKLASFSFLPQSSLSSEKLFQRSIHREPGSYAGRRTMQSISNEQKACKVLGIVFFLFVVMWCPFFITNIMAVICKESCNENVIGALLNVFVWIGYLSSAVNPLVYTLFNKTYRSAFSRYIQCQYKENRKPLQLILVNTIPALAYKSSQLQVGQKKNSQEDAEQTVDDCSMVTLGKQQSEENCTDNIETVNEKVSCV
Description: Affinity for 5-HT2 receptor on transfected fibroblast cell membranes (partial agonist [^125 I]lysergic acid diethylamide; Elliott, M. J., Kent, A., J. Neurochem. 53: 191-196, 1989.; Peroutka, S. J., Snyder, S. H. , Molec. Pharmacol. 16: 687-699, 1979; Kadan, J. M., Krohn, A. M., Evans, M. J., Ualtz, R. L., Hartig, P. R.; J. Neurochem. 43: 601-606, 1984) is used to determine the potency of test compounds to compete with [^125 I]LSD binding to a NIH 3T3 cell line containing the cloned rat 5-HT2 receptor designated "GF-6" by its originators.[Julius, D., Huang, K. N., Livelli, T. J., Axel, R., and Jessell, T. M., Proc. Natl. Acad. Sci. USA 87:928-932, 1990]
Confluent GF6 cell monolayers are dissociated in Versene and centrifuged at 1000 rpm for 5 minutes. The resulting pellet is homogenized in 10 volumes 0.32M sucrose using a Dounce glass homogenizer, 10 strokes. The suspension is centrifuged at 44,000×g for 15 minutes, and the pellet suspended in […] Hepes-KOH, pH 7.4, using a Polytron. The membranes are then stored at -80° C.
The assay tubes, in triplicate, receive 20 μl of 5 nM [^125 I]LSD, 20 μl of test compound (10^-9 M to 10^-5 M or 10 μM ketanserin for nonspecific binding), 40 μl of membrane suspension (1-5 μg protein/assay tube) in a final volume of 0.1 ml of 50 mM Tris- HCl, pH 7.6. Incubations are carried out at 37° C. for 60 minutes and terminated by addition of 2 ml ice-cold assay buffer end filtered through GF/B glass fiber filters (presoaked in 0.1% polyethyleneimine). Filters are washed twice with 5 ml of cold buffer and transferred to polystyrene tubes for radioactivity determination. Protein concentration was measured using the Bradford dye binding method.
Inhibition of [^125 I]LSD binding by a test compound is indicative of affinity for the 5HT2 receptor site. The molar concentration of a Compound which causes 50% inhibition of the binding of ligand is the IC50. The IC50 value is converted to the Ki value by the method of Cheng and Prusoff.[Cheng, Y. -C and Prusoff, Biochem. Pharmacol. 22:3099-3108, 1973].

migraine headaches = conditions: in vivo; cited from earlier work
migraine = conditions: in vivo; cited from earlier work
5-HT1C receptor = conditions: albeit nonselective; cited from earlier work

SMILES: COc1ccc(CC(Oc2ccccc2OCc2ccccc2)C2=NCCN2)cc1 (stereo not drawn) [100,499, 2-[1-(2-benzyloxyphenoxy)-2-(4-methoxyphenyl)]ethylimidazoline]
- IC50 [1]: 3.5 nM

SMILES: c1ccc(COc2ccccc2OC(Cc2ccccc2)C2=NCCN2)cc1 (stereo not drawn) [101,600, 2-[1-(2-benzyloxyphenoxy)-2-phenyl]ethylimidazoline]
- IC50 [1]: 2.5 nM

SMILES: c1ccc(CCOc2ccccc2OC(Cc2ccccc2)C2=NCCN2)cc1 (stereo not drawn) [101,623, 2-(1-[2-(2-phenylethoxy)phenoxy]-2-phenyl)ethylimidazoline]
- IC50 [1]: 14 nM

SMILES: c1ccc(CCCC(Oc2ccccc2OCc2ccccc2)C2=NCCN2)cc1 (stereo not drawn) [102,588, 2-[1-(2-benzyloxyphenoxy)-4-phenyl]butylimidazoline]
- IC50 [1]: 167 nM

SMILES: Clc1cccc(N2CCNCC2)c1 [m-chlorophenylpiperazine]
- inducing migraine headaches (migraine headaches): capable of inducing migraine headaches

SMILES: CC[C@@H](CO)NC(=O)[C@@H]1C=C2c3cccc4c3c(cn4C)C[C@H]2N(C)C1 [methysergide]
- migraine prophylactic effectiveness (migraine): well established as effective migraine prophylactic agents
- 5-HT1C receptor antagonist activities (5-HT1C receptor): potent 5-HT1C receptor antagonist activities (albeit nonselective)

SMILES: CN1CCC(=C2c3ccccc3CCc3sccc32)CC1 [pizotifen]
- migraine prophylactic effectiveness (migraine): well established as effective migraine prophylactic agents
- 5-HT1C receptor antagonist activities (5-HT1C receptor): potent 5-HT1C receptor antagonist activities (albeit nonselective)
